Data reported in patent publication US6221860A, “Beta-lactam inhibitors of CoA-IT” (SmithKline Beecham Corporation, priority 1999, dated 2001).

Experiments:
[1] = test system: CoA-IT; assay: Microsomal CoA-IT activity assay (U937 cell microsomes); type: biochemical; settings: increased uM or longer pretreatment time
Description: The following is a method to measure CoA-IT activity and the effects of compounds on CoA-IT activity. The assay is based upon mixing cellular material containing CoA-IT activity with a stable lyso phospholipid such as 1-alkyl-2-acyl-GPC and measuring the production of phospholipid product such as 1-alkyl-2-acyl-GPC occurring in the absence of added CoA or CoA-fatty acids.
Any inflammatory cell that contains high levels of COA-IT activity can be used, such as neutrophils, macrophages or cell lines such as U937 cells. U937 cells were obtained from American Type Culture Collection and grown in RPMI- 1640 media (Gibco, Grand Island, N.Y.) supplemented with 10% fetal bovine serum (Hyclone, Logan, Utah) at 37° C., 5% CO2. Cells were grown without differentiation (basal state) by any agent, such as dimethyl sulfoxide.
Microsomes were prepared using standard techniques. […]
CoA-lT activity was measured in 1.5 ml centrifuge tubes in a total volume of 100 ul. […] An aliquot of the chloroform-extracted materials were separated, usually by TLC in chloroform/methanol/acetic acid/water (50:25:8:4, v/v), visualized by radioscanning (Bioscan) and the product, [^3 H]1-alkyl-2-acyl-GPC, was scraped and quantified by liquid scintillation spectroscopy. […]
Protein concentration were assessed using the protein assay reagents from Bio-Rad (Richmond, Calif.).

[2] = test system: phorbol ester-induced inflammation in mouse ear; assay: TPA-induced mouse ear inflammation (ear edema and MPO); type: in vivo; settings: topical, Balb/c mice
Description: Male Balb/c inbred mice were obtained from Charle River Breeding Laboratories (Kingston, N.Y.). Within a single experiment mice (22-25 g) were age-matched. These in vivo experiments typically involved use of 5-6 animals/group.
TPA (12-O-tetradecanoylphorbol 13-acetate) (Sigma Chemical Company) in acetone ([…]) was applied to the inner and outer surfaces of the left ear of BALB/c male mice. The thickness of both ears was then measured with a dial micrometer (Mitutoyo, Japan) at both 2 and 4 hours after treatment, and the data expressed as the change in thickness (10^-3 cm) between treated and untreated ears. […] After measuring the edema, the inflammed left ears were removed and stored at -70° C. until they were assayed for MPO (myeloperoxidase) activity where appropriate.
On the day of the assay, partially thawed ear tissues were minced and then homogenized (10% w/v) with a Tissumnizer homogenizer (Tekmar Co.) in 50 mM phosphate buffer (pH 6) containing 0.5% HTAB. […] Supernatant MPO activity was quantified kinetically (change in absorbance measured over 3 min, sampled at 15-sec intervals) using a Beckman DU-7 spectrophotometer and a Kinetics Analysis package (Beckman Instruments, Inc.). […]
Balb/c mice were given PMA followed by the test compound. The edematous response was measured using a thickness gauge 4 hrs post PMA application. […]

| SMILES | activity in CoA-IT assay at increased concentration or longer pretreatment [1] | Edema @ 4 hr ED50 ([2]; 4 hrs post PMA application) | MPO response ED50 ([2]; inflamed ears harvested after the 4 hr edema measurement) |
| --- | --- | --- | --- |
| COC(=O)CCCO[C@@H]1NC(=O)[C@H]1NC(c1ccccc1)(c1ccccc1)c1ccccc1 [Example 17, (3S,4S)-4-[3-(Methoxycarbonyl)propoxy]-3-(triphenylmethylamino)azetidin-2-one] | active at either increased uM or longer pretreatment time |  |  |
| C[C@@H]1C[C@H]2[C@@H]3CCC4=CC(=O)C=C[C@]4(C)[C@@]3(F)[C@@H](O)C[C@]2(C)[C@@]1(O)C(=O)CO [dexamethasone, reference compound] |  | 0.06 mg/ear | 0.03 mg/ear |
